Source: ChEMBL document CHEMBL5653599, “AZD1152, a novel and selective aurora B kinase inhibitor, induces growth arrest, apoptosis, and sensitization for tubulin depolymerizing agent or topoisomerase II inhibitor in human acute leukemia cells in vitro and in vivo” (Blood, 2007)
Active and inactive are the calls of the source. No cut-off for these calls is given here.

Tests used:
MOLM-13 [1] = assay: Induction of apoptosis in human MOLM-13 cells assessed as increase in cleaved PARP level by immunoblot analysis; type: functional, cell-based; details: dose 0.1-1 µM
MOLM-13 [2] = assay: In vivo antiproliferative activity against human MOLM-13 cells xenografted in immunodeficient nude BALB/c mouse model assessed as inhibition of cell proliferation at 0.2 mg/kg, ip administered for 2 weeks on every another day for first week relative to control; type: functional; details: MOLM-13, 336 h
[3] = Antiproliferative activity against human PALL-2 cells assessed as inhibition of cell proliferation at 0.3 uM by 3H-thymidine incorporation assay relative to control; type: functional
PALL-2 [4] = assay: Induction of apoptosis in human PALL-2 cells assessed as increase in cleaved PARP level by immunoblot analysis; type: functional, cell-based; details: dose 0.1-1 µM
MOLM-13 [5] = assay: Antitumor activity against human MOLM-13 cells xenografted in immunodeficient nude BALB/c mouse model assessed as decrease in tumor weight at 25 mg/kg, ip administered 4 times a week for 2 weeks measured twice per week (reference value: 583 +/- 150 mg); type: functional
MOLM-13 [6] = assay: Antitumor activity against human MOLM-13 cells xenografted in immunodeficient nude BALB/c mouse model assessed as decrease in tumor volume at 25 mg/kg, ip administered 4 times a week for 2 weeks measured twice per week (reference value: 1261 +/- 200 mm3); type: functional
MOLM-13 [7] = assay: Antitumor activity against human MOLM-13 cells xenografted in immunodeficient nude BALB/c mouse model assessed as tumor growth inhibition at 5 mg/kg, ip administered 4 times a week for 2 weeks in presence of vincristine relative to control; type: functional; details: MOLM-13, 336 h
MOLM-13 [8] = assay: Antitumor activity against human MOLM-13 cells xenografted in immunodeficient nude BALB/c mouse model assessed as necrotic tissue with infiltration of phagocytic cells at 25 mg/kg, ip administered 4 times a week for 2 weeks by H and E staining based analysis; type: functional, organism-based
MOLM-13 [9] = assay: Antitumor activity against human MOLM-13 cells xenografted in immunodeficient nude BALB/c mouse model assessed as reduction in tumor growth at 5 mg/kg, ip administered 4 times a week for 2 weeks in presence of daunorubicin; type: functional, organism-based
MOLM-13 [10] = assay: In vivo antiproliferative activity against human MOLM-13 cells xenografted in immunodeficient nude BALB/c mouse model assessed as inhibition of cell proliferation at 5 mg/kg, ip administered 4 times a week for 2 weeks relative to control; type: functional; details: MOLM-13, 336 h
[11] = target: Aurora kinase B (Homo sapiens) (UniProt Q96GD4); assay: Inhibition of Aurora B in human MV4-11 cells assessed as decrease in histone H3 phosphorylation at Ser10 at 10 nM incubated for 24 hrs by flow cytometry (reference value: 52 %); type: cell-based; design: scale not given: the % may be the effect or the level left
Aurora kinase B (Homo sapiens), sequence (Q96GD4 whole entry): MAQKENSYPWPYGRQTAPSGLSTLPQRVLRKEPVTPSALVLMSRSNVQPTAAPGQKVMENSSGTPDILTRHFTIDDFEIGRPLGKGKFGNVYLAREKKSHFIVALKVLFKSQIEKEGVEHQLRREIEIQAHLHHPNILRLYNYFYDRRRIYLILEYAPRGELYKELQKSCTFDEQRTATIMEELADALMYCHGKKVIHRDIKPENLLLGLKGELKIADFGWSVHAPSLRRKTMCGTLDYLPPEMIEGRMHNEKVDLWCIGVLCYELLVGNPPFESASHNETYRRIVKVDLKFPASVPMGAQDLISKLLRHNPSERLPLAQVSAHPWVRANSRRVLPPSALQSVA

MOLM-13 [12] = assay: Antitumor activity against human MOLM-13 cells xenografted in immunodeficient nude BALB/c mouse model assessed as suppression of tumor weight at 25 mg/kg, ip administered 4 times a week for 2 weeks measured twice per week; type: functional, organism-based
[13] = target: Aurora kinase B (Homo sapiens) (UniProt Q96GD4); assay: Inhibition of Aurora B in human MOLM-13 cells assessed as decrease in histone H3 phosphorylation at Ser10 at 10 nM incubated for 24 hrs by flow cytometry (reference value: 43 %); type: cell-based; design: scale not given: the % may be the effect or the level left
MOLM-13 [14] = assay: Antitumor activity against human MOLM-13 cells xenografted in immunodeficient nude BALB/c mouse model assessed as reduction in tumor weight at 5 mg/kg, ip administered 4 times a week for 2 weeks in presence of vincristine; type: functional, organism-based
MOLM-13 [15] = assay: Antitumor activity against human MOLM-13 cells xenografted in immunodeficient nude BALB/c mouse model assessed as absence of leukemia cells at 25 mg/kg, ip administered 4 times a week for 2 weeks by H and E staining based analysis; type: functional, organism-based
MOLM-13 [16] = assay: Antitumor activity against human MOLM-13 cells xenografted in immunodeficient nude BALB/c mouse model assessed as suppression of tumor growth at 25 mg/kg, ip administered 4 times a week for 2 weeks measured twice per week; type: functional, organism-based
[17] = Toxicity in immunodeficient nude BALB/c mouse model xenografted with human MOLM-13 cells at 1 mg/kg, ip administered 6 times in 2 weeks; type: organism-based; details: in vivo, 336 h
[18] = Toxicity in immunodeficient nude BALB/c mouse model xenografted with human MOLM-13 cells assessed as signs of body wasting at 25 mg/kg, ip administered 4 times a week for 2 weeks measured twice per week; type: organism-based; details: in vivo, 336 h
[19] = Toxicity in immunodeficient nude BALB/c mouse model xenografted with human MOLM-13 cells assessed as signs of toxicity at 25 mg/kg, ip administered 4 times a week for 2 weeks measured twice per week; type: organism-based; details: in vivo, 336 h
[20] = Toxicity in immunodeficient nude BALB/c mouse model xenografted with human MOLM-13 cells assessed as signs of body wasting at 5 mg/kg, ip administered 4 times a week for 2 weeks in presence of vincristine; type: organism-based; details: in vivo, 336 h
MOLM-13 [21] = assay: Induction of apoptosis in human MOLM-13 cells assessed as early apoptotic cells at 3 nM incubated for 24 hrs by annexin V/PI staining based flow cytometry (reference value: 2.4 %); type: functional
[22] = target: Aurora kinase B (Homo sapiens) (UniProt Q96GD4); details: PALL-2, dose <= 10.0 nM, time 24-48 hrs
Description: Inhibition of Aurora B in human PALL-2 cells assessed as increase in 4N/8N DNA content upto 10 nM by FACS analysis

MOLM-13 [23] = assay: Induction of apoptosis in human MOLM-13 cells assessed as early apoptotic cells at 1 nM incubated for 48 hrs by annexin V/PI staining based flow cytometry (reference value: 3.2 %); type: functional
MOLM-13 [24] = assay: Inhibition of clonogenic growth in human MOLM-13 cells incubated for 10 days; type: functional, cell-based; details: MOLM-13, 240 h
MOLM-13 [25] = assay: Induction of apoptosis in human MOLM-13 cells assessed as late apoptotic cells at 10 nM incubated for 48 hrs by annexin V/PI staining based flow cytometry (reference value: 1.9 %); type: functional
MOLM-13 [26] = assay: Induction of apoptosis in human MOLM-13 cells assessed as early apoptotic cells at 10 nM incubated for 24 hrs by annexin V/PI staining based flow cytometry (reference value: 2.4 %); type: functional
MV4-11 [27] = assay: Inhibition of cell proliferation of human MV4-11 cells incubated for 48 hrs by 3H-thymidine uptake assay; type: functional, cell-based
[28] = target: Aurora kinase B (Homo sapiens) (UniProt Q96GD4); details: MOLM-13, dose <= 10.0 nM, time 24-48 hrs
Description: Inhibition of Aurora B in human MOLM-13 cells assessed as increase in 4N/8N DNA content upto 10 nM by FACS analysis

MOLM-13 [29] = assay: Induction of apoptosis in human MOLM-13 cells assessed as early apoptotic cells at 10 nM incubated for 48 hrs by annexin V/PI staining based flow cytometry (reference value: 3.2 %); type: functional
PALL-2 [30] = assay: Induction of apoptosis in human PALL-2 cells assessed as increase in cleaved PARP level at 1 to 3 nM in presence of vincristine by immunoblot analysis; type: functional, cell-based; details: dose 1-3 nM
MOLM-13 [31] = assay: Induction of apoptosis in human MOLM-13 cells assessed as late apoptotic cells at 1 nM incubated for 24 hrs by annexin V/PI staining based flow cytometry (reference value: 2.2 %); type: functional
MOLM-13 [32] = assay: Induction of apoptosis in human MOLM-13 cells assessed as late apoptotic cells at 10 nM incubated for 24 hrs by annexin V/PI staining based flow cytometry (reference value: 2.2 %); type: functional
[33] = Synergistic antiproliferative activity against human PALL-2 cells assessed as inhibition of cell proliferation at 0.3 to 3 nM in presence of vincristine by 3H-thymidine incorporation assay relative to control; type: functional; details: dose 0.3-3 nM
MOLM-13 [34] = details: Homo sapiens, dose 1-10 nM
MOLM-13 [35] = assay: Induction of apoptosis in human MOLM-13 cells assessed as late apoptotic cells at 1 nM incubated for 48 hrs by annexin V/PI staining based flow cytometry (reference value: 1.9 %); type: functional
MOLM-13 [36] = assay: Induction of apoptosis in human MOLM-13 cells assessed as increase in cleaved PARP level at 3 to 10 nM in presence of daunorubicin by immunoblot analysis; type: functional, cell-based; details: dose 3-10 nM
MOLM-13 [37] = assay: Induction of apoptosis in human MOLM-13 cells assessed as increase in cleaved PARP level at 1 to 3 nM in presence of vincristine by immunoblot analysis; type: functional, cell-based; details: dose 1-3 nM
MOLM-13 [38] = assay: Inhibition of cell proliferation of human MOLM-13 cells incubated for 48 hrs by 3H-thymidine uptake assay; type: functional, cell-based
[39] = target: Aurora kinase B (Homo sapiens) (UniProt Q96GD4); details: PALL-2, dose <= 10.0 nM, time 24-48 hrs; remark: listed apart in the source
Description: Inhibition of Aurora B in human PALL-2 cells assessed as increase in 4N/8N DNA content measured for 24 to 48 hrs by FACS analysis

MV4-11 [40] = assay: Inhibition of clonogenic growth in human MV4-11 cells incubated for 10 days; type: functional, cell-based; details: MV4-11, 240 h
MOLM-13 [41] = assay: Induction of apoptosis in human MOLM-13 cells assessed as early apoptotic cells at 3 nM incubated for 48 hrs by annexin V/PI staining based flow cytometry (reference value: 3.2 %); type: functional
MOLM-13 [42] = assay: Induction of apoptosis in human MOLM-13 cells assessed as late apoptotic cells at 3 nM incubated for 24 hrs by annexin V/PI staining based flow cytometry (reference value: 2.2 %); type: functional
MOLM-13 [43] = assay: Induction of apoptosis in human MOLM-13 cells assessed as early apoptotic cells at 1 nM incubated for 24 hrs by annexin V/PI staining based flow cytometry (reference value: 2.4 %); type: functional
[44] = Inhibition of cell proliferation of human PALL-2 cells incubated for 48 hrs by 3H-thymidine uptake assay; type: functional, cell-based
[45] = target: Aurora kinase B (Homo sapiens) (UniProt Q96GD4); details: MOLM-13, dose <= 10.0 nM, time 24-48 hrs; remark: listed apart in the source
Description: Inhibition of Aurora B in human MOLM-13 cells assessed as increase in 4N/8N DNA content measured for 24 to 48 hrs by FACS analysis

MOLM-13 [46] = details: Homo sapiens, dose 1.0 nM
MOLM-13 [47] = assay: Induction of apoptosis in human MOLM-13 cells assessed as late apoptotic cells at 3 nM incubated for 48 hrs by annexin V/PI staining based flow cytometry (reference value: 1.9 %); type: functional
[48] = Antiproliferative activity against human PALL-2 cells assessed as inhibition of cell proliferation at 3 nM by 3H-thymidine incorporation assay relative to control; type: functional

## CC[C@]1(O)C[C@H]2CN(CCc3c([nH]c4ccccc34)[C@@](C(=O)OC)(c3cc4c(cc3OC)N(C=O)[C@H]3[C@@](O)(C(=O)OC)[C@H](OC(C)=O)[C@]5(CC)C=CCN6CC[C@]43[C@@H]65)C2)C1 [VINCRISTINE]
MOLM-13 [1]
  Activity: Dose-Dependent Effect
MOLM-13 [2]
  inhibition in vivo at 0.2 mg/kg: ~50%
[3]
  inhibition at 0.3 µM: ~35%
PALL-2 [4]
  Activity: Dose-Dependent Effect

## CCN(CCCOc1ccc2c(Nc3cc(CC(=O)Nc4cccc(F)c4)[nH]n3)ncnc2c1)CCOP(=O)(O)O [BARASERTIB]
MOLM-13 [5]
  Activity: 78 mg
MOLM-13 [6]
  Activity: 71 mm3
MOLM-13 [7]
  inhibition in vivo at 5 mg/kg: ~100%
MOLM-13 [8]
  Activity: Active
MOLM-13 [9]
  Activity: Active
MOLM-13 [10]
  inhibition in vivo at 5 mg/kg: ~50%
[11]
  Activity: 19%
MOLM-13 [12]
  Activity: Active
[13]
  Activity: 25%
MOLM-13 [14]
  Activity: Active
MOLM-13 [15]
  Activity: Active
MOLM-13 [16]
  Activity: Active

## COc1cccc2c1C(=O)c1c(O)c3c(c(O)c1C2=O)C[C@@](O)(C(C)=O)C[C@@H]3O[C@H]1C[C@H](N)[C@H](O)[C@H](C)O1 [DAUNORUBICIN]
[17]
  Activity: Toxic

## CCN(CCCOc1ccc2c(Nc3cc(CC(=O)Nc4cccc(F)c4)n[nH]3)ncnc2c1)CCOP(=O)(O)O [BARASERTIB]
[18]
  Activity: Non-Toxic
[19]
  Activity: Non-Toxic
[20]
  Activity: Non-Toxic

## CCN(CCO)CCCOc1ccc2c(Nc3cc(CC(=O)Nc4cccc(F)c4)[nH]n3)ncnc2c1 [DEFOSBARASERTIB]
MOLM-13 [21]
  Activity: 3.4%
[22]
  inhibition: Tde
MOLM-13 [23]
  Activity: 1.9%
MOLM-13 [24]
  IC50: 1 nM
MOLM-13 [25]
  Activity: 15%
MOLM-13 [26]
  Activity: 6.5%
MV4-11 [27]
  IC50: 8 nM
[28]
  inhibition: Tde
MOLM-13 [29]
  Activity: 36%
PALL-2 [30]
  Activity: Active
MOLM-13 [31]
  Activity: 4.3%
MOLM-13 [32]
  Activity: 7.1%
[33]
  inhibition (INH): ~80%
MOLM-13 [34]
  inhibition: Active
MOLM-13 [35]
  Activity: 3.8%
MOLM-13 [36]
  Activity: Active
MOLM-13 [37]
  Activity: Active
MOLM-13 [38]
  IC50: 12 nM
[39]
  inhibition: Dose-Dependent Effect
MV4-11 [40]
  IC50: 2.8 nM
MOLM-13 [41]
  Activity: 2.2%
MOLM-13 [42]
  Activity: 3.8%
MOLM-13 [43]
  Activity: 3.1%
[44]
  IC50: 5 nM
[45]
  inhibition: Dose-Dependent Effect
MOLM-13 [46]
  inhibition: Active
MOLM-13 [47]
  Activity: 3.5%
[48]
  inhibition at 0.003 µM: ~35%
